Results from patent US20140235568A1, “GEMCITABINE AMIDE DERIVATIVE AND PREPARATION METHOD AND USE THEREOF” (priority 2011, published 2014).
≈ marks a conversion by molar mass, not a printed value. Read-outs that look alike come from different tables or passages of the source.

Key:
[1] = tested on: A549 (human lung cancer cells); assay: MTT assay, in vitro inhibition of proliferation of human tumor cells; type: cell-based; details: for IC50: Homo sapiens, A549, 72 h; for A549 100 μg/ml IC %: inhibition at 100 μg/ml, 72 h
Description: (§1) The tumor cell lines used in the experiments were as follows: A549 (human lung cancer cells), HCT116 (human colon cancer cells), HepG2 (human hepatoma cells), ZR-75-30 (human breast cancer cell), purchased from Shanghai Institute of Pharmaceutical Industry.
(§2) The sample was dissloved in DMSO (Merck), and PBS was added to prepare a 1000 μg/mL of solution or a uniform suspension. And then, DMSO-containing PBS (−) was added to dilute the solution or suspension. The positive control medicaments were gemcitabine (GEM) and LY2334737 developed by Eli Lilly and Company.
(§3) MTT assay: 100 μL cell suspension (4˜5×10^4 cells/mL) was added into each well of 96-well plate, and cultured in 37° C., 5% CO2 incubator. After 24 h, the sample solution was added in duplicate, 10 μL/well, and incubated at 37° C., 5% CO2 for 72 h. 20 μL MTT solution (5 mg/mL) was added into each well. After 4 h, a dissolving solution was added, 100 μL/well. The plate was placed into the incubator. After dissolved, OD value at 570 nm was measured on MK-2 automatic microplate reader.

[2] = tested on: HCT116 (human colon cancer cells); assay: as above; type: cell-based; details: for IC50: Homo sapiens, HCT-116, 72 h; for HCT116 100 μg/ml IC %: inhibition at 100 μg/ml, 72 h
Description: as §1, §2, §3

[3] = tested on: HepG2 (human hepatoma cells); assay: as above; type: cell-based; details: for IC50: Homo sapiens, HepG2, 72 h; for HepG2 100 μg/ml IC %: inhibition at 100 μg/ml, 72 h
Description: as §1, §2, §3

[4] = tested on: ZR-75-30 (human breast cancer cell); assay: as above; type: cell-based; details: for IC50: Homo sapiens, ZR-75-30, 72 h; for ZR-75-30 100 μg/ml IC %: inhibition at 100 μg/ml, 72 h
Description: as §1, §2, §3

NCI 60 human tumor cells = assay: NCI in vitro cytotoxic activity screening; type: cell-based; details: for GI50: Homo sapiens, derived from MGM; for MGM: NCI 60 human tumor cells, GI50 in M (log)
Description: The cytotoxic activities of Compounds SYN-141 and SYN-165 were assayed in NCI systemactically.

[5] = tested on: human colon cancer cells HCT116 xenografts; assay: In vivo antitumor activity test, xenografts in nude mice; details: dosed 0.1-10 mg/kg body weight, better than LY2334737 at the same dose
Description: Some of the compounds were tested in vivo using human colon cancer cells HCT116 xenografts in nude mice according to a literature method (Wei Hong, Medical Laboratory Animal Science, Sichuan Science and Technology Press, 2nd edition, Chengdu, 2001, 595-596).

hepatitis C virus = details: patients, minimum dose, within a few days (1-2 days in some cases); cited from earlier work

Compound	IC50 [1] [µg/mL]	A549 100 μg/ml IC % [1] [%]	IC50 [2] [µg/mL]	HCT116 100 μg/ml IC % [2] [%]	IC50 [3] [µg/mL]	HepG2 100 μg/ml IC % [3] [%]	IC50 [4] [µg/mL]	ZR-75-30 100 μg/ml IC % [4] [%]	GI50 (NCI 60 human tumor cells; read-out: total average GI50 against 60 human tumor cell lines) [nM]	MGM (NCI 60 human tumor cells)	in vivo antitumor activity [5]	melting point [°C]	GI50 (NCI 60 human tumor cells; read-out: total average GI50 against 60 human tumor cells) [nM]	reduction of hepatitis C viral load (hepatitis C virus) [logarithmic unit]
O=C(CCCc1ccccc1)Nc1ccn([C@@H]2O[C@H](CO)C(O)C2(F)F)c(=O)n1 (stereo partly drawn) [SYN-141, N^4-(4-phenyl)butyryl Gemcitabine]	5.6 (≈ 13.7 µM)	56.38	0.269 (≈ 0.657 µM)	92.46	7.2 (≈ 17.6 µM)	62.48	4.7 (≈ 11.5 µM)	91.63	620	−6.21	potent in vivo antitumor activity	111	–	–
CCCCC(=O)Nc1ccn([C@@H]2O[C@H](CO)C(O)C2(F)F)c(=O)n1 (stereo partly drawn) [SYN-147, N^4-n-valeryl Gemcitabine Gemcitabine]	7.82 (≈ 22.5 µM)	58.09	0.193 (≈ 0.556 µM)	88.14	0.246 (≈ 0.708 µM)	59.49	1.13 (≈ 3.25 µM)	90.22	–	–	potent in vivo antitumor activity	184	–	–
CCCCCCCC(=O)Nc1ccn([C@@H]2O[C@H](CO)C(O)C2(F)F)c(=O)n1 (stereo partly drawn) [SYN-165, N^4-n-octanoyl Gemcitabine]	42.5 (≈ 109 µM)	55.82	0.154 (≈ 0.395 µM)	99.01	0.123 (≈ 0.316 µM)	77.90	0.135 (≈ 0.347 µM)	96.30	–	−7.12	potent in vivo antitumor activity	139	75.8	–
Nc1ccn([C@@H]2O[C@H](CO)[C@@H](O)C2(F)F)c(=O)n1 [GEM, gemcitabine]	3.74 (≈ 14.2 µM)	57.57	0.0237 (≈ 0.09 µM)	78.07	0.263 (≈ 0.999 µM)	53.34	0.454 (≈ 1.72 µM)	96.60	–	–	–	–	–	≥ 2
CCCC(CCC)C(=O)Nc1ccn([C@@H]2O[C@H](CO)[C@@H](O)C2(F)F)c(=O)n1 [LY-2334737, N4-valproyl gemcitabine, reference compound]	18.3 (≈ 46.9 µM)	60.05	3.81 (≈ 9.78 µM)	84.51	1.78 (≈ 4.57 µM)	67.52	29.3 (≈ 75.3 µM)	78.36	–	–	–	–	–	–
CCCC(=O)Nc1ccn([C@@H]2O[C@H](CO)C(O)C2(F)F)c(=O)n1 (stereo partly drawn) [SYN-140, N^4-n-butyryl gemcitabine]	4.26 (≈ 12.8 µM)	64.84	0.395 (≈ 1.19 µM)	87.79	84.4 (≈ 253 µM)	50.42	3.01 (≈ 9.03 µM)	89.52	–	–	potent in vivo antitumor activity	198	–	–
